pEC50: −log10 of the molar value.

The test concerns the target T1, human FPR2 receptors (Homo sapiens, UniProt P25090).
T1 sequence (P25090 1-351): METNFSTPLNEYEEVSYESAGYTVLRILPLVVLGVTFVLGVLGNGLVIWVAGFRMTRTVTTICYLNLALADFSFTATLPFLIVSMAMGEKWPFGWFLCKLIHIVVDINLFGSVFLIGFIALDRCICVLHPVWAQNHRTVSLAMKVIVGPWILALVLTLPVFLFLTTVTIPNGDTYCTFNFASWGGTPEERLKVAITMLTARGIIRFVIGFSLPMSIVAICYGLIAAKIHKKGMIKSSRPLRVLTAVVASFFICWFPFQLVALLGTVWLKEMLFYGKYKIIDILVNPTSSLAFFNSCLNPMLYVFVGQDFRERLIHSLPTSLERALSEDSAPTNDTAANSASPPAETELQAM
As to the kind of experiment: FPR2 cAMP assay in CHO cells overexpressing human FPR2 (HTRF). Type of test: cell-based. The settings on record: hFPR2 assay; potency bins; read-out: hFPR2 agonist activity EC50. An excerpt:
N-formyl peptide receptors (FPRs) are a family of chemo attractant receptors that facilitate leukocyte response during inflammation. FPRs belong to the seven-transmembrane G protein-coupled receptor superfamily and are linked to inhibitory G-proteins (Gi). Three family members (FPR1, FPR2 and FPR3) have been identified in humans and are predominantly found in myeloid cells with varied distribution and have also been reported in multiple organs and tissues. After agonist binding, the FPRs activate a multitude of physiological pathways, such as intra cellular signaling transduction, Ca^2+ mobilization and transcription. The family interacts with a diverse set of ligands that includes proteins, polypeptides and fatty acid metabolites which activate both pro-inflammatory and pro-resolution downstream responses. FPR2 and FPR1 Cyclic Adenosine Monophosphate (cAMP) Assays were used to measure the in vitro activity of the compounds disclosed in this application.
FPR2 and FPR1 Cyclic Adenosine Monophosphate (cAMP) Assays. A mixture of forskolin (5 μM final for FPR2 or 10 μM final for FPR1) and IBMX (200 μM final) were added to 384-well Proxiplates (Perkin-Elmer) pre-dotted with test compounds in DMSO (1% final) at final concentrations in the range of 0.020 nM to 100 μM. Chinese Hamster Ovary cells (CHO) overexpressing human FPR1 or human FPR2 receptors were cultured in F-12 (Ham's) medium supplemented with 10% qualified FBS, 250 μg/ml zeocin and 300 μg/ml hygromycin (Life Technologies). Reactions were initiated by adding 2,000 human FPR2 cells per well or 4,000 human FPR1 cells per well in Dulbecco's PBS (with calcium and magnesium) (Life Technologies) supplemented with 0.1% BSA (Perkin-Elmer). The reaction mixtures were incubated for 30 min at room temperature. The level of intracellular cAMP was determined using the HTRF HiRange cAMP assay reagent kit (Cisbio) according to manufacturer's instruction. Solutions of cryptate conjugated anti-cAMP and d2 flurorophore-labelled cAMP were made in a supplied lysis buffer separately. Upon completion of the reaction, the cells were lysed with equal volume of the d2-cAMP solution and anti-cAMP solution. After a 1-h room temperature incubation, time-resolved fluorescence intensity was measured using the Envision (Perkin-Elmer) at 400 nm excitation and dual emission at 590 nm and 665 nm. A calibration curve was constructed with an external cAMP standard at concentrations ranging from 1 μM to 0.1 pM by plotting the fluorescent intensity ratio from 665 nm emission to the intensity from the 590 nm emission against cAMP concentrations. The potency and activity of a compound to inhibit cAMP production was then determined by fitting to a 4-parametric logistic equation from a plot of cAMP level versus compound concentrations.
(In general: Changes in cAMP serve as a functional read-out for many G protein-coupled receptors.)
As usually defined, the pEC50 is the negative decadic logarithm of the EC50, by convention in mol/L. Take `COc1cc(F)c([C@@H]2CNC(=O)[C@H]2Nc2nc3ccc(Cl)cc3o2)c(F)c1` [Example 1, (3S,4R)-3-[(6-chloro-1,3-benzoxazol-2-yl)amino]-4-(2,6-difluoro-4-methoxyphenyl)pyrrolidin-2-one]: the negative logarithm of the EC50 (pEC50) is 6.00 to 6.82.

`COc1cc(F)c([C@@H]2CNC(=O)[C@H]2Nc2nnc(-c3ccc(Cl)cc3)s2)c(F)c1` [Example 2, (3S,4R)-3-{[5-(4-chlorophenyl)-1,3,4-thiadiazol-2-yl]amino}-4-(2,6-difluoro-4-methoxyphenyl)pyrrolidin-2-one]: the pEC50 was not below 7.40.

In the case of `COc1cc(F)c([C@@H]2CNC(=O)[C@H]2Nc2nnc(-c3ccc(Cl)cc3)o2)c(F)c1` [Example 3, (3S,4R)-3-{[5-(4-chlorophenyl)-1,3,4-oxadiazol-2-yl]amino}-4-(2,6-difluoro-4-methoxyphenyl)pyrrolidin-2-one], the pEC50 was not below 7.40. For the compound `COc1cc(F)c([C@@H]2CNC(=O)[C@H]2Nc2nnc(-c3ccccc3)o2)c(F)c1` [Example 4, (3S,4R)-4-(2,6-difluoro-4-methoxyphenyl)-3-[(5-phenyl-1,3,4-oxadiazol-2-yl)amino]pyrrolidin-2-one], the pEC50 was 6.00 to 6.82.

Regarding `COc1cc(F)c([C@@H]2CNC(=O)[C@H]2Nc2nnc(-c3ccc(F)c(F)c3)o2)c(F)c1` [Example 5, (3S,4R)-4-(2,6-difluoro-4-methoxyphenyl)-3-{[5-(3,4-difluorophenyl)-1,3,4-oxadiazol-2-yl]amino}pyrrolidin-2-one], the pEC50 is 6.00 to 6.82. Under `COc1cc(F)c([C@@H]2CNC(=O)[C@H]2Nc2nnc(-c3cccnc3)o2)c(F)c1` [Example 6, (3S,4R)-4-(2,6-difluoro-4-methoxyphenyl)-3-{[5-(pyridin-3-yl)-1,3,4-oxadiazol-2-yl]amino}pyrrolidin-2-one] stands 6.00 to 6.82; under `COc1cc(F)c([C@@H]2CNC(=O)[C@H]2Nc2nnc(-c3ccc(OC(F)(F)F)cc3)o2)c(F)c1` [Example 7, (3S,4R)-4-(2,6-difluoro-4-methoxyphenyl)-3-({5-[4-(trifluoromethoxy)phenyl]-1,3,4-oxadiazol-2-yl}amino)pyrrolidin-2-one], 6.82 to 7.40.

For the compound `COc1cc(F)c([C@@H]2CNC(=O)[C@H]2Nc2nnc(-c3ccc(C(F)(F)F)cc3)o2)c(F)c1` [Example 8, (3S,4R)-4-(2,6-difluoro-4-methoxyphenyl)-3-({5-[4-(trifluoromethyl)phenyl]-1,3,4-oxadiazol-2-yl}amino)pyrrolidin-2-one], the pEC50 is not below 7.40.

In the case of `COc1cc(F)c([C@@H]2CNC(=O)[C@H]2Nc2nnc(-c3ccc(C#N)cc3)o2)c(F)c1` [Example 9, 4-(5-{[(3S,4R)-4-(2,6-difluoro-4-methoxyphenyl)-2-oxopyrrolidin-3-yl]amino}-1,3,4-oxadiazol-2-yl)benzonitrile], the pEC50 is 6.00 to 6.82.

Turning to `COc1cc(F)c([C@@H]2CNC(=O)[C@H]2Nc2nnc(-c3ccc(C(F)(F)F)nc3)o2)c(F)c1` [Example 10, (3S,4R)-4-(2,6-difluoro-4-methoxyphenyl)-3-({5-[6-(trifluoromethyl)pyridin-3-yl]-1,3,4-oxadiazol-2-yl}amino)pyrrolidin-2-one], the pEC50 was not below 7.40. Under `COc1cc(F)c([C@@H]2CNC(=O)[C@H]2Nc2nnc(-c3ccc(C)cc3)o2)c(F)c1` [Example 11, (3S,4R)-4-(2,6-difluoro-4-methoxyphenyl)-3-{[5-(4-methylphenyl)-1,3,4-oxadiazol-2-yl]amino}pyrrolidin-2-one] stands 6.00 to 6.82. Under `COc1cc(F)c([C@@H]2CNC(=O)[C@H]2Nc2nnc(-c3ccc(F)cc3)o2)c(F)c1` [Example 12, (3S,4R)-4-(2,6-difluoro-4-methoxyphenyl)-3-{[5-(4-fluorophenyl)-1,3,4-oxadiazol-2-yl]amino}pyrrolidin-2-one] stands 6.82 to 7.40; under `COc1cc(F)c([C@@H]2CNC(=O)[C@H]2Nc2nnc(-c3ccc(-n4cccn4)cc3)o2)c(F)c1` [Example 13, (3S,4R)-4-(2,6-difluoro-4-methoxyphenyl)-3-({5-[4-(1H-pyrazol-1-yl)phenyl]-1,3,4-oxadiazol-2-yl}amino)pyrrolidin-2-one], 6.00 to 6.82.

The values above are taken from US12281108B2, “Pyrrolidinone derivatives as formyl peptide 2 receptor agonists” (BRISTOL-MYERS SQUIBB COMPANY, priority 2018, dated 2025).
